SMILES strings stand for the structures.

A short description of the series: GHS categories as the set defines them, by LD50: 1 up to 5, 2 up to 50, 3 up to 300, 4 up to 2000, 5 above 2000 mg/kg. The settings on record: rat; in vivo; po. The text has this:
[…]The data set underlying the modeling effort for this project was initially compiled by NICEATM and U.S. EPA’s CCTE. Briefly, LD50 data were collected from rat acute oral systemic toxicity tests, including limit tests, ranges/confidence intervals, and discrete LD50 values. The full data set included 21,200 LD50 entries for 15,688 substances. […] Data were reviewed to ensure that LD50 values with obvious errors in the extracted data such as unit conversion errors (e.g., comma and decimal separator misplacements) were either fixed or removed. After this review, 16,209 LD50 values remained. Many of the chemicals represented had multiple LD50 entries, requiring that a single representative value per Chemical Abstracts Service Registry Number (CASRN) identifier be defined to facilitate modeling efforts. Based on ATWG feedback and to define the representative LD50 as a protective value while accounting for the distribution across multiple LD50s, the median of the lowest quartile was computed using only discrete LD50 values (omitting limit test data and range and confidence interval data). A detailed summary of the data compilation is available online on the NICEATM webpage dedicated to the collaborative modeling project (NTP 2020).
[…][…] For categorical designations, limit test and range/confidence interval LD50 data were integrated wherever possible. As such, the number of chemicals with end point values/calls varies across the modeling end points (Table 3) based on whether chemicals had representative LD50 values and/or other data. If a chemical had both, the representative value was used to determine categorical calls rather than limit test data. Some data were useable only for certain end points and categories depending on the thresholds. For example, ranges that spanned multiple hazard categories were considered only for the binary (very toxic/nontoxic) end points and omitted from rendering a determination for hazard category assignment.
[…]The final data set comprising 11,992 chemicals was split into training and evaluation sets […], respectively. This process was performed semirandomly by ordering chemicals based on the five end points (categorical and continuous LD50 values) and partitioning every fourth record into the evaluation set accordingly. This approach was taken to ensure an equivalent distribution of the LD50 values and the different hazard categories between the training and the evaluation sets without supervised sampling of the chemicals based on structures (Figure 1A). The sources of the chemical structures were also kept equivalent between the two sets, with chemical structures obtained from DSSTox, being the highest quality, representing over 75% of each set (Figure 1B).
`Cc1cc(Cl)ccc1OC(C)C(=O)Nc1ccccc1` (configuration not stated) had a GHS category of 5. As for `O=c1[nH]c(=O)n(C2OC(CO)C(O)C2O)cc1C=CBr` (configuration not stated), the GHS category turned out to be 5. As to `C=CC(C)CCC=C(C)C` (configuration not stated), the GHS category is 5.

Regarding `Nc1ccc2oc(=O)[nH]c2c1`, the GHS category is on record as 4. The compound `CNCC1CCC(N)C(OC2C(N)CC(N)C(OC3OCC(C)(O)C(NC)C3O)C2O)O1` (configuration not stated) showed a GHS category of 5. `CCOCc1nc(=O)c2nccnc2[nH]1` returned a GHS category of 5. In the case of `N#CC(C(=O)OCC(COC(=O)C(C#N)=C(c1ccccc1)c1ccccc1)(COC(=O)C(C#N)=C(c1ccccc1)c1ccccc1)COC(=O)C(C#N)=C(c1ccccc1)c1ccccc1)=C(c1ccccc1)c1ccccc1` it was 5; in that of `CC(C)(c1ccc(OP(=O)(Oc2ccccc2)Oc2ccccc2)cc1)c1ccc(OP(=O)(Oc2ccccc2)Oc2ccccc2)cc1`, 5. As for `C=CC1CCC(C2CCC(CCC)CC2)CC1` (configuration not stated), the GHS category turned out to be 5. Turning to `CCOC(C)(C)C`, the GHS category is on record as 5. The compound `COc1ccc(OC)c(C(O)CNC(=O)CN)c1` (configuration not stated) gave a GHS category of 2. In turn, `CCN(CCCCOC(=O)c1ccc(OC)c(OC)c1)C1CCc2cc(OC)ccc2C1` (configuration not stated) displayed a GHS category of 5. Compound `CC/C=C\CCOC=O` had a GHS category of 5. In the case of `CCCCCCCC(=O)Nc1ccc(Cc2ccccn2)c([N+](=O)[O-])c1` it was 3; in that of `Cc1cccc(N(C)C(=S)Oc2ccc3ccccc3c2)c1`, 5; in that of `CC(C)(C)c1ccc2oc(-c3ccc(-c4nc5cc(C(C)(C)C)ccc5o4)s3)nc2c1`, 5. As to `CC[N+](CC)(CC)C(C)OS(=O)(=O)C(F)(F)C(F)(F)C(F)(F)C(F)(F)F` (configuration not stated), the GHS category worked out at 5. Consider `CC1Oc2cc(C(=O)c3ccccc3)ccc2NC1=O` (configuration not stated), for which the GHS category was found to be 5.

Compound `CCCCC(CC)COC(=O)C1CCC(C(=O)OCC(CC)CCCC)CC1` (configuration not stated) came in with a GHS category of 5. Then `C[N+](C)(C)CC(O)CC(=O)[O-]` (configuration not stated), with 5; and `C=C(C)C(=O)OCCOC(=O)Oc1ccc(C(C)(C)c2ccc(OC(=O)OCCOC(=O)C(=C)C)cc2)cc1`, with 5; and `CC(=O)c1ccc2c(c1)OC(C)C(=O)N2C` (configuration not stated), with 5. `Nc1nc(COc2ccc(Cl)cc2)nc(NCCc2ccccc2)n1` returned a GHS category of 5. The compound `CC(C)COC(=O)CC(C)C` returned a GHS category of 5.

`CCNC(=O)[C@@H]1CCCN1C(=O)[C@H](CCCN=C(N)N)NC(=O)[C@H](CC(C)C)NC(=O)[C@@H](COC(C)(C)C)NC(=O)[C@H](Cc1ccc(O)cc1)NC(=O)[C@H](CO)NC(=O)[C@H](Cc1c[nH]c2ccccc12)NC(=O)[C@H](Cc1cnc[nH]1)NC(=O)[C@@H]1CCC(=O)N1` gave a GHS category of 4.

In turn, `COc1cc(C(=O)OCCOCCN2CCN(C(c3ccccc3)c3ccc(Cl)cc3)CC2)cc(OC)c1OC` (configuration not stated) registered a GHS category of 5. As for `COc1ccc2cccc(CC#N)c2c1`, the GHS category is 5. The compound `Cc1nn(-c2ccc3cc(-c4ccccc4)c(=O)oc3c2)nc1-c1ccccc1` came in with a GHS category of 5. `Cc1c(S(C)(=O)=O)ccc(C(=O)O)c1Cl` yielded a GHS category of 5. `Cc1cccc2ncc(C(=O)NC3CCCCC3)c(=O)n12` had a GHS category of 3.

`CCN(CCOC(C)=O)c1ccc(N=Nc2nc3ccc(Cl)cc3s2)cc1` registered a GHS category of 5. Regarding `Cn1c(N)c(NC=O)c(=O)n(C)c1=O`, the GHS category is given as 5. In the case of `CCCCCCC(C)O` (configuration not stated), the GHS category amounted to 5.

`CC1(C)S[C@@H]2[C@H](NC(=O)[C@H](N)c3ccc(O)cc3)C(=O)N2[C@H]1C(=O)O` gave a GHS category of 5. `N[C@H](C(=O)O)c1ccc(O)cc1` had a GHS category of 5. On to `CCCCC1C(=O)N(c2ccccc2)N(c2ccc(S(C)(=O)=O)cc2)C1=O` (configuration not stated), for which the GHS category amounted to 4.

`CCCCCC1C(=O)CCC1CC(=O)OC` (configuration not stated): the GHS category turned out to be 5. Compound `COc1ccc(C=CC(C)=O)cc1` came in with a GHS category of 5. In turn, `C[SiH](C)O[SiH](C)C` returned a GHS category of 5. In the case of `CN1C(=O)C(C)(C)Oc2cc(C(=O)C=Cc3ccc(Cl)cc3)ccc21` it was 5; in that of `CCCCCOC(=O)CCCC`, 5.

As to `Cc1c(Cl)ccc(OC(C)C(O)=Nc2ccccc2)c1Cl` (configuration not stated), the GHS category was determined as 5. For `CCOC(=O)/C=C(C)/C=C/C=C(C)/C=C/c1c(C)cc(OC)c(C)c1C`, the GHS category is 5. In the case of `CC(C)NP1(=S)OCc2cc([N+](=O)[O-])ccc2O1` (configuration not stated) it was 3.

In the case of `CCC(=O)CCC1C(C)=CCCC1(C)C` (configuration not stated), the GHS category was found to be 5.

Regarding `CC1(C)O[C@@H]2C[C@H]3[C@@H]4C[C@H](F)C5=CC(=O)C=C[C@]5(C)[C@H]4[C@@H](O)C[C@]3(C)[C@]2(C(=O)CO)O1`, the GHS category worked out at 1.

`O=C1c2ccc3c4ccc5c6c(ccc(c7ccc(c2c37)C(=O)N1CCc1ccccc1)c64)C(=O)N(CCc1ccccc1)C5=O` displayed a GHS category of 5. As for `CC(O)CCl` (configuration not stated), the GHS category is recorded as 3. The compound `CCCCCCCCOC(=O)CCc1cc(C(C)(C)C)c(O)c(C(C)(C)C)c1` showed a GHS category of 5. Then `CCCCCCCC/C=C\CCCCCCCC(=O)NCC(C)O` (configuration not stated), with 5. Then `Cc1cc(C2CC2)nc(Nc2ccccc2)n1`, with 5; and `CCCC(=O)c1ccc(NC)c(O)c1`, with 5; and `CCOC(=O)COc1cc(-c2nn(C)c(OC(F)F)c2Cl)c(F)cc1Cl`, with 5. On to `CC(C)(C)c1ccc(OCC2CO2)cc1` (configuration not stated), for which the GHS category was 5. In the case of `Cn1c(=O)oc2cc(C(=O)c3cccs3)ccc21` it was 5. Consider `CC1=C(C/C=C(\C)CCC[C@H](C)CCC[C@H](C)CCCC(C)C)C(=O)c2ccccc2C1=O`, for which the GHS category was determined as 5. In turn, `C=C(C)C(=O)OCCc1ccccc1` gave a GHS category of 5. On to `Cc1nc(N2CCOCC2)sc1C(=O)Nc1ccccc1`, for which the GHS category stood at 4. Then `CCCC(=NOCC(C)Oc1ccc(Cl)cc1)C1=C(O)CC(C2CCCSC2)CC1=O` (configuration not stated), with 5; and `CC(=O)C=CC=C(C)CCC=C(C)C`, with 5.

Turning to `COC(=O)c1c(C)nc(C)c(C(=O)O)c1-c1cc([N+](=O)[O-])ccc1F`, the GHS category is on record as 5. Then `CCN(CC)c1ccc(N=Nc2ncc([N+](=O)[O-])s2)cc1`, with 5; and `CCCCCCCCCCCCOC(=O)C=CC(=O)OCCCCCCCCCCCC`, with 5.

Compound `CCC(C)c1cc(S(=O)(=O)O)cc(-n2nc3ccccc3n2)c1O` (configuration not stated) yielded a GHS category of 5. The compound `c1cc2c(c(OCCN3CCCCC3)c1)OCCO2` came in with a GHS category of 5. The compound `C/C=C(\C)C(=O)OCC/C=C\CC` registered a GHS category of 5. The compound `CC(=O)OC1CCCCC1C` (configuration not stated) had a GHS category of 5. The compound `CCCCn1c(C)c(CC(=O)O)c2c1CC(C)(C)CC2=O` showed a GHS category of 5. `CN1C(=O)CCc2c(OCC(O)CN3CCC(Cc4ccccc4)CC3)cccc21` (configuration not stated) registered a GHS category of 4. Compound `CCCCn1cc2c3c(cccc31)[C@@]1(OC)C[C@@H](COC(=O)c3cncc(Br)c3)CN(C)[C@@H]1C2` returned a GHS category of 4. Then `CCCCCCOC(=O)CCC`, with 5; and `CCN(Cc1cccc(S(=O)(=O)O)c1)c1ccc(C(=C2C=CC(=[N+](CC)Cc3cccc(S(=O)(=O)[O-])c3)C=C2)c2ccc(S(=O)(=O)O)cc2)cc1`, with 5; and `CC(=O)O[C@@H]1C(=O)O[C@@H]2[C@H]1OC(=O)[C@@H]2OC(C)=O`, with 5. In turn, `CCN(Cc1cccc(S(=O)(=O)O)c1)c1ccc(C(=C2C=CC(=[N+](CC)Cc3cccc(S(=O)(=O)[O-])c3)C=C2)c2ccccc2)cc1` had a GHS category of 5.

The compound `CNc1nc(Nc2ccc(C=Cc3ccc(Nc4nc(NC)nc(N(CCO)CCO)n4)cc3S(=O)(=O)O)c(S(=O)(=O)O)c2)nc(N(CCO)CCO)n1` showed a GHS category of 5.

In turn, `CC(=O)C1(Cl)CC1` returned a GHS category of 4. In the case of `COC1[C@@H](O[C@@H]2O[C@H](C)[C@@H](O[C@H]3C[C@@](C)(O)[C@H](OC(=O)CC(C)C)[C@H](C)O3)[C@H](N(C)C)[C@H]2O)[C@@H](CC=O)C[C@@H](C)[C@@H](O)C=CC=CC[C@@H](C)OC(=O)C[C@H]1OC(C)=O` (some centres not stated) it was 5; in that of `CCOP(Oc1c(C)cc(C(C)(C)C)cc1C(C)(C)C)Oc1c(C)cc(C(C)(C)C)cc1C(C)(C)C`, 5. Regarding `COCCOCOCCOC`, the GHS category came out at 5. Regarding `Nc1nc(N)nc(NC(=O)NC(=O)c2ccc(Cl)cc2)n1`, the GHS category is on record as 5. `O=C(O)c1cccc2cccc(-c3cccc4cccc(C(=O)O)c34)c12`: the GHS category is 5.

Take `Cc1ccc2ncc(C(=O)NC3CCCC3)c(=O)n2c1`: the GHS category is recorded as 3.
